Assay results published in paper PMC11952846, “The sterol-regulating human ARV1 binds cholesterol and phospholipids through its conserved ARV1 homology domain” (The Journal of Biological Chemistry, 2025).
Where a chain is given by its changes, count along the chain named.

Assays:
[1] = molecular target: T1, 6XHIS-N98 C34/37A (Homo sapiens, UniProt Q9H2C2, C34A/C37A); assay: HTRF phospholipid lipid-binding assay, mutant; set-up: key: NC, no change; details: biotinylated lipid; NC = no change vs N98
T1 construct: made in house; host or cells: E. coli BL21
T1 sequence (Q9H2C2 1-98 C34A/C37A): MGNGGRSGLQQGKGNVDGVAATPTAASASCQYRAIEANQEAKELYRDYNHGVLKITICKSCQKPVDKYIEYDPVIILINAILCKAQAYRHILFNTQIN
From the text: (§1) An HTRF assay was developed for 6XHIS-ARV1-N98-lipid binding. HTRF measures analyte interactions through fluorescence resonance energy transfer technology and time-resolved measurements ([53]). The interaction between two molecules can be quantified through binding each individual molecule involved with a fluorescent label and then analyzing the transfer of energy between the initial donor fluorophore and the secondary acceptor fluorophore. Following excitation of the first fluorophore, transfer of energy can only occur if the molecules bound with the fluorescent tags are within proximity to each other.
(§2) Assays were plated in 384-well flat bottom microplates (Greiner Bio, catalog #784075-25). Proteins were diluted using binding buffer (20 mM Hepes buffer, pH 7.2, containing 0.1% BSA, and 0.01% Tween20) to a stock concentration of 0.75 μM, and biotinylated phospholipids were dispensed, dried under nitrogen gas, and resuspended in binding buffer to a stock concentration of 50 μM. The lipid stock solution was diluted by 1:2 for a series of 12 serial dilutions. For the assay, in sequential order, 6 μl of binding buffer was loaded into the plate in triplicate for each dilution of phospholipid. To this, 2 μl of 0.75 μM 6XHIS-ARV1-N98 was added, followed by 2 μl of biotinylated phospholipid. Immediately following each addition loaded into the plate, the plate was centrifuged for 1 min at 1000 rpm to bring the contents to the bottom of the well. Next, detection antibodies were mixed with detection buffer (20 mM Hepes buffer, pH 8.5, containing 0.01% BSA and 200 mM KF). Antibodies were a MAb anti-6XHIS Europium kryptate-conjugated D1 fluorescent antibody (Cisbio, #61HISKLA) and Streptavidin-conjugated d2 fluorescent antibody (Cisbio, #610SADLA). For each 1000 μl of detection buffer, 5 μl of each antibody was added just prior to loading 10 μl into each well. The plate was again centrifuged for 1 min at 1000 rpm and stored in a sealed container overnight, in the dark. Plates were read on a PerkinElmer EnVision Xcite Multilabel plate reader.
(§3) Curves were logarithmically transformed and normalized to a common scale before being fit with a nonlinear regression of the agonist against the normalized response. This generated half maximal effective concentration values (EC50; M) that could then be compared between different lipids. In the context of our study, EC50 values were defined as a measure of protein sensitivity to binding to a particular lipid within a dose response curve. For phospholipid competition analysis, IC50; M values were determined using nonlinear regression of the inhibitor against normalized response.

[2] = molecular target: T2, 6XHIS-N98 C58/61A (Homo sapiens, UniProt Q9H2C2, C58A/C61A); assay: HTRF phospholipid lipid-binding assay, mutant; set-up: key: NC, no change; details: biotinylated lipid; NC = no change vs N98
T2 construct: made in house; host or cells: E. coli BL21
T2 sequence (Q9H2C2 1-98 C58A/C61A): T1 sequence (Q9H2C2 1-98 C34A/C37A) with A34C, A37C, C58A, C61A
From the text: as §1, §2, §3

[3] = molecular target: T3, 6XHIS-N98 E70A (Homo sapiens, UniProt Q9H2C2, E70A); assay: HTRF phospholipid lipid-binding assay, mutant; set-up: key to Bio-PL, EC50, M ± S.D.: NC, no change; details: biotinylated lipid, NC = no change vs N98
T3 construct: made in house; host or cells: E. coli BL21
T3 sequence (Q9H2C2 1-98 E70A): T1 sequence (Q9H2C2 1-98 C34A/C37A) with A34C, A37C, E70A
From the text: as §1, §2, §3

[4] = molecular target: T4, GST-ARV1 (full-length ARV1) (Homo sapiens, UniProt Q9H2C2); assay: Lipid overlay far western; assay type: binding
T4 construct: Expresses full length ARV1; made in house; host or cells: E. coli BL21 (pGEX-4T1)
T4 sequence (Q9H2C2 1-271): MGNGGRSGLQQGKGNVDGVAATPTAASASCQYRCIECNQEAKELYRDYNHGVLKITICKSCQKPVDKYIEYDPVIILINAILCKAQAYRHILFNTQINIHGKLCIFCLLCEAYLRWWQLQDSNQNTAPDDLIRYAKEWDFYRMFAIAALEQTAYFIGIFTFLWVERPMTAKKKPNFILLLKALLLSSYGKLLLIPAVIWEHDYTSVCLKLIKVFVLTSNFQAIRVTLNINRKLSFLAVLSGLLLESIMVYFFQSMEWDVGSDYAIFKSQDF
Protocol: (§4) Lipid overlays were blocked in TBST-BSA (100 mM Tris–HCl buffer, pH 7.5, 150 mM NaCl, 0.5% Tween 20, 3% bovine serum albumin) for 1 h and subsequently washed eight separate times with TBST for 2 min each. Overlays were incubated with 0.5 μg/ml GST-tagged or 6XHIS-tagged proteins in 3% TBST-BSA buffer containing 0.1% Triton X-100, for 1 h at room temperature and washed as above. Overlays were incubated with either anti-GST or anti-6XHIS monoclonal antibodies at a 1:1000 dilution in TBST-BSA for 1 h at room temperature followed by eight washes in TBST. Overlays were visualized using Immobilon Western Chemiluminescent horseradish peroxidase substrate and protein–lipid interaction was detected using a GE ImageQuant LAS 3000 imager.

[5] = molecular target: T5, GST-ARV1-N98 (Homo sapiens, UniProt Q9H2C2); assay: Lipid overlay far western; assay type: binding
T5 construct: Expresses amino-terminal 98 amino acids of ARV1; made in house; host or cells: E. coli BL21 (pGEX-4T1)
T5 sequence (Q9H2C2 1-98): T1 sequence (Q9H2C2 1-98 C34A/C37A) with A34C, A37C
Protocol: as §4

[6] = molecular target: GST-Annexin A2 (Homo sapiens, UniProt P07355); assay: Lipid overlay far western (positive control protein); assay type: binding
Protocol: as §4

[7] = molecular target: T6, 6XHIS-ARV1-N98 K84A (Homo sapiens, UniProt Q9H2C2, K84A); assay: Lipid overlay far western, site-directed mutant; assay type: binding; details: compared to the ARV1-N98 protein
T6 construct: Expressing amino-terminal 98 amino acids of ARV1; made in house; host or cells: E. coli BL21 (pET-28a(+))
T6 sequence (Q9H2C2 1-98 K84A): T1 sequence (Q9H2C2 1-98 C34A/C37A) with A34C, A37C, K84A
Protocol: as §4

[8] = molecular target: T7, GST-ARV1-N50 (Homo sapiens, UniProt Q9H2C2); assay: Lipid overlay far western, truncation; assay type: binding; details: compared to ARV1-N98 / ARV1-N70
T7 construct: Expresses amino-terminal 50 amino acids of ARV1; made in house; host or cells: E. coli BL21 (pGEX-4T1)
T7 sequence (Q9H2C2 1-50): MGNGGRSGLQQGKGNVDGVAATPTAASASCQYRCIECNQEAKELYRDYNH
Protocol: as §4

[9] = PIP lipid membrane strip, 100pmol-1.56pmol per spot
[10] = lipid-embedded membrane strips, incl. sphingolipid strip

Chain of GST-Annexin A2 (P07355 whole entry): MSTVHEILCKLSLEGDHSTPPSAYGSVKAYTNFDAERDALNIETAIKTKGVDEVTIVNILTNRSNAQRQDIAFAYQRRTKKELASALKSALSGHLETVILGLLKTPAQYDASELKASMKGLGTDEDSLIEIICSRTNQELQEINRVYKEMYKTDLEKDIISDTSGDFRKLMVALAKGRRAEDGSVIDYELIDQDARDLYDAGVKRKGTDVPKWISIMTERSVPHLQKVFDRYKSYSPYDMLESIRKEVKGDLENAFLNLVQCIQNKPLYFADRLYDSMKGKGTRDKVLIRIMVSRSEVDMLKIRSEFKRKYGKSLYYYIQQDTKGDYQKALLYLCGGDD

Row | Compound | Bio-PL, EC50, M ± S.D. [1] | Bio-PL, EC50, M ± S.D. [2] | EC50 ([3]; read-out: Bio-PL, EC50, M ± S.D.) | Bio-PL, EC50, M ± S.D. [3] | lipid-protein interaction [4, 9] | lipid-protein interaction [4, 10] | lipid-protein interaction [5, 9] | lipid-protein interaction [5, 10] | lipid-protein interaction [6, 9] | lipid-protein interaction [6, 10] | change of lipid-protein interaction [7] | change of lipid-protein interaction [8]
1 | CCCCCC(=O)O[C@H](COC(=O)CCCCCNC(=O)CCCC[C@@H]1SC[C@@H]2NC(=O)N[C@@H]21)COP(=O)(O)O[C@H]1[C@H](O)[C@@H](O)[C@H](OP(=O)(O)O)[C@@H](O)[C@H]1O [reference compound] |  | weakened |  | weakened | weakly | weakly | interacted | interacted | strongest interactions | interacted | increased interactions | 
2 | CCCCCCCC/C=C\CCCCCCCC(=O)OC[C@H](COP(=O)(O)OCC(O)CO)OC(=O)CCCCCCC/C=C\CCCCCCCC (stereo partly shown) [PG, phosphatidylglycerol] | reduced | NC |  | NC |  | weakly |  | interacted |  |  | weakened | eliminated
3 | CCCCCCCCCCCCCCCCCC(=O)OC[C@H](COP(=O)(O)OC[C@H](N)C(=O)O)OC(=O)CCCCCCCCCCCCCCCCC [PS, phosphatidylserine] | NC | NC |  | NC |  | interacted |  | interacted |  | interacted |  | restored
4 | CCCCC/C=C\C/C=C\CCCCCCCC(=O)OC[C@H](COP(=O)(O)OCC(O)COP(=O)(O)OC[C@@H](COC(=O)CCCCCCC/C=C\C/C=C\CCCCC)OC(=O)CCCCCCC/C=C\C/C=C\CCCCC)OC(=O)CCCCCCC/C=C\C/C=C\CCCCC (stereo partly shown) [CL, cardiolipin] | NC | NC |  | NC |  | interacted |  | interacted |  | interacted | weakened | eliminated

Continued, in another order:

Row | Bio-PL, EC50, M ± S.D. [1] | Bio-PL, EC50, M ± S.D. [2] | EC50 ([3]; read-out: Bio-PL, EC50, M ± S.D.) | Compound | Bio-PL, EC50, M ± S.D. [3] | lipid-protein interaction [4, 9] | lipid-protein interaction [4, 10] | lipid-protein interaction [5, 9] | lipid-protein interaction [5, 10] | lipid-protein interaction [6, 9] | lipid-protein interaction [6, 10] | change of lipid-protein interaction [7] | change of lipid-protein interaction [8]
5 | NC | NC |  | phosphatidylcholine [PC] | NC |  |  |  |  |  |  |  | 
6 | NC | NC | 190 nM | phosphatidylethanolamine [PE] |  |  | not seen |  | not seen |  |  |  | 
7 | increased | reduced binding |  | CCCCCCCCCCCCCCCC(=O)OC[C@H](COP(=O)(O)O)OC(=O)CCCCCCCCCCCCCCC [PA, phosphatidic acid] | reduced binding |  |  |  |  |  | weakly |  | 
